Test system: telomerase
Assay: Telomerase reaction carried out first, then PCR of the diluted reaction solution, gel electrophoresis, with or without λDNA
Assay type: biochemical
Details: final concentrations 0.1 to 10 μM
Method: Moreover, effects of inhibiting telomerase by TMPyP and anionic phthalocyanines were compared in Comparative Example 3 and Example 4 to 5 below. In these experiments, the S7700 kit was used similarly to the aforementioned Comparative Examples 1 to 2 and Examples 1 to 3. However, in Comparative Examples 1 to 2 and Examples 1 to 3 described above, the reagents required only for the telomerase reaction and PCR were all mixed first, and the telomerase reaction and PCR were carried out sequentially by regulating the reaction temperature. To the contrary, in the following Comparative Example 3 and Examples 4 to 5, only the reagents required for the telomerase reaction were first mixed to carry out a telomerase reaction, and a part of the reaction solution and the reagents required for the PCR were mixed to carry out the PCR.
In addition, in each of the following Comparative Example 3 and Examples 4 to 5, experiments were carried out with or without addition of a λDNA in the telomerase reaction. Addition of the λDNA was intended to reproduce for mimicking the conditions in which a large amount of double-stranded DNAs are present as in the case of genomic DNAs in cells, and to study the effects of inhibiting telomerase by TMPyP or anionic phthalocyanines even under conditions more approximate to those in vivo, by adding a λDNA.
Telomerase reaction solution in a total volume of 10 μL were prepared by mixing 1 μL of 10× TRAP Reaction buffer, 0.2 μL of 50× dNTP Mix, 0.2 μL of TS primer, 4 μL of the telomerase solution prepared in Comparative Example 1, 2 μL of the TMPyP aqueous solution, and 2.6 μL of milliQ water (the reaction solutions having final TMPyP concentrations of 0 M, 0.1 μM, 0.3 μM, 1 μM, 3 μM and 10 μM were prepared, respectively). Then, the reaction solutions were stood under a condition of 30° C. for 60 min to allow a telomerase reaction to be carried out.
Next, 4 μL of a solution prepared by diluting the solution after the telomerase reaction 20 times with milliQ water, 0.2 μL of 50× dNTP Mix, 0.2 μL of TS primer, 0.2 μL of Primer Mix, 0.1 μL of TaKaLa LA Taq Hot Start Version (manufactured by Takara Bio Inc.), 1 μL of 10× LA PCR buffer II (Mg^2+ plus) (buffer solution included in TaKaLa LA Taq Hot Start Version), and 4.3 μL of milliQ water were mixed to prepare a PCR solution in a total volume of 10 μL. Then, PCR was carried out by allowing this PCR solution to stand under temperature conditions in which a thermo cycle of: 30 sec at 95° C.; 30 sec at 59° C.; and 30 sec at 72° C. was repeated 30 times.
Finally, the solution after the PCR was electrophoresed on a 10% polyacrylamide gel, and stained with GelStar Nucleic Acid Stain (manufactured by Takara Bio Inc.). […] In the order from the leftmost lane, the results with final concentrations of TMPyP being 0 M, 0.1 μM, 0.3 μM, 1 μM, 3 μM and 10 μM are shown.
On the other hand, experiments in which a λDNA was added to the telomerase reaction solution were also carried out. More specifically, in preparing the telomerase reaction solution described above, 2.6 μL of a λDNA solution (manufactured by Takara Bio Inc.) was mixed in place of mixing 2.6 μL of milliQ water. Other telomerase reaction temperature/time schedule, PCR solution preparation condition, PCR temperature/time schedule, electrophoresis condition were just the same.

Sequence of telomerase (O14746 whole entry): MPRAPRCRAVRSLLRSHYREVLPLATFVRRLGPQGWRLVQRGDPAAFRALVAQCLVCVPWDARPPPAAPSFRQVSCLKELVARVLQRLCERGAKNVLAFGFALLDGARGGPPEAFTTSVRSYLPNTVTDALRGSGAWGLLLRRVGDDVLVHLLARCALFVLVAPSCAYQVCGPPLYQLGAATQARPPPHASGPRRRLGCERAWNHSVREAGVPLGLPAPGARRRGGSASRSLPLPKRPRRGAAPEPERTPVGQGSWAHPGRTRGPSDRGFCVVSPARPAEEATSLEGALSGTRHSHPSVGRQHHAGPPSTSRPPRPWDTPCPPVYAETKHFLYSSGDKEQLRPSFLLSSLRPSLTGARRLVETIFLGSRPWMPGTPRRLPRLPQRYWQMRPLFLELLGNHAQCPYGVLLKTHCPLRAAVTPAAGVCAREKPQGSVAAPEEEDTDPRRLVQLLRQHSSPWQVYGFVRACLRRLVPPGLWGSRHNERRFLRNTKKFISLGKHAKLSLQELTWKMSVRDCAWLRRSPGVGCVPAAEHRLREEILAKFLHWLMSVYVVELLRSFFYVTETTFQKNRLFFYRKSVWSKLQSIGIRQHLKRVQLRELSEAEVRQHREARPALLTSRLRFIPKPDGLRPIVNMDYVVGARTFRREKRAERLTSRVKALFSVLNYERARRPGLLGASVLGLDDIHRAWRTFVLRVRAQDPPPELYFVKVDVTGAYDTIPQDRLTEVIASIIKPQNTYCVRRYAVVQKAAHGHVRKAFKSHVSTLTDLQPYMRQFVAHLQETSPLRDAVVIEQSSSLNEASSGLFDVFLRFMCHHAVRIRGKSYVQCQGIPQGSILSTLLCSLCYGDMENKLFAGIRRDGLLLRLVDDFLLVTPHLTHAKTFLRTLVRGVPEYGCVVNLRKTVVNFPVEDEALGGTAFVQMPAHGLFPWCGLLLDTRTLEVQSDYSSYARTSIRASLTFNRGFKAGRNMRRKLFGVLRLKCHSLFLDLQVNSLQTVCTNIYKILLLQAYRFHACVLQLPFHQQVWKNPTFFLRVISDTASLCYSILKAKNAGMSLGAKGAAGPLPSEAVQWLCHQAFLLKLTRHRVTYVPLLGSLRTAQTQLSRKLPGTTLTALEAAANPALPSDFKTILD

inhibition of the telomerase reaction (band of telomerase reaction product) (no addition of λDNA) | Substance | inhibition of the telomerase reaction (band of telomerase reaction product) (in the presence of λDNA)
inhibited with higher concentration | Copper(II) phthalocyanine-3,4′,4″,4′″-tetrasulfonic acid tetrasodium salt [CuPC] | can efficiently inhibit the telomerase reaction
inhibited with higher concentration | Nickel(II) phthalocyanine tetrasulfonic acid tetrasodium salt [NiPC] | can efficiently inhibit the telomerase reaction
